Key:
human kinase Mps-1 = human kinase Mps-1 (Homo sapiens (Human), UniProt P33981); test: Mps-1 kinase assay (TR-FRET); type: biochemical; conditions: 10 μM ATP; read-out: Mps1 avg (IC50 [mol/l])
Method: The human kinase Mps-1 phosphorylates a biotinylated substrate peptide. Detection of the phosphorylated product is achieved by time-resolved fluorescence resonance energy transfer (TR-FRET) from Europium-labelled anti-phospho-Serine/Threonine antibody as donor to streptavidin labelled with cross-linked allophycocyanin (SA-XLent) as acceptor. Compounds are tested for their inhibition of the kinase activity.
N-terminally GST-tagged human full length recombinant Mps-1 kinase (purchased from Invitrogen, Karslruhe, Germany, cat. no PV4071) was used. As substrate for the kinase reaction a biotinylated peptide of the amino-acid sequence biotin-Ahx-PWDPDDADITEILG (C-terminus in amide form, purchased from Biosyntan GmbH, Berlin) was used.
For the assay 50 nl of a 100-fold concentrated solution of the test compound in DMSO was pipetted into a black low volume 384 well microtiter plate (Greiner Bio-One, Frickenhausen, Germany), 2 μl of a solution of Mps-1 in assay buffer [0.1 mM sodium-ortho-vanadate, 10 mM MgCl2, 2 mM DTT, 25 mM Hepes pH 7.7, 0.05% BSA (w/v), 0.001% Pluronic F-127] were added and the mixture was incubated for 15 min at 22° C. to allow pre-binding of the test compounds to Mps-1 before the start of the kinase reaction. Then the kinase reaction was started by the addition of 3 μl of a solution of 16.7 μM adenosine-tri-phosphate (ATP, 16.7 μM=>final conc. in the 5 μl assay volume is 10 μM) and peptide substrate (1.67 μM=>final conc. in the 5 μl assay volume is 1 μM) in assay buffer and the resulting mixture was incubated for a reaction time of 60 min at 22° C. The concentration of Mps-1 in the assay was adjusted to the activity of the enzyme lot and was chosen appropriate to have the assay in the linear range, typical enzyme concentrations were in the range of about 0.5 nM (final conc. in the 5 μl assay volume). The reaction was stopped by the addition of 5 μl of a solution of TR-FRET detection reagents (100 mM Hepes pH 7.4, 0.1% BSA, 40 mM EDTA, 140 nM Streptavidin-XLent [#61GSTXLB, Fa. Cis Biointernational, Marcoule, France], 1.5 nM anti-phospho(Ser/Thr)-Europium-antibody [#AD0180, PerkinElmer LAS, Rodgau-Jugesheim, Germany]. Instead of the 1.5 nM anti-phospho(Ser/Thr)-Europium-antibody a mixture of 2 nM unlabeled anti-phospho ser/thr-pro antibody MPM-2 [Millipore cat. #05-368] and 1 nM LANCE EU-W1024 labeled anti-mouse IgG antibody [Perkin-Elmer, product no. AD0077] can be used).
The resulting mixture was incubated 1 h at 22° C. to allow the binding of the phosphorylated peptide to the anti-phospho(Ser/Thr)-Europium-antibody. Subsequently the amount of phosphorylated substrate was evaluated by measurement of the resonance energy transfer from the Europium-labelled anti-phospho(Ser/Thr) antibody to the Streptavidin-XLent. Therefore, the fluorescence emissions at 620 nm and 665 nm after excitation at 350 nm was measured in a Viewlux TR-FRET reader (PerkinElmer LAS, Rodgau-Jugesheim, Germany). The “blank-corrected normalized ratio” (a Viewlux specific readout, similar to the traditional ratio of the emissions at 665 nm and at 622 nm, in which blank and Eu-donor crosstalk are subtracted from the 665 nm signal before the ratio is calculated) was taken as the measure for the amount of phosphorylated substrate. The data were normalised (enzyme reaction without inhibitor=0% inhibition, all other assay components but no enzyme=100% inhibition).

human Bub1 = human Bub1 (Homo sapiens (Human), UniProt O43683); test: Bub1 kinase assay (TR-FRET); type: biochemical; conditions: 10 μM ATP; read-out: Bub1 avg (IC50 [mol/l])
Chain of human Bub1 (O43683 704-1085): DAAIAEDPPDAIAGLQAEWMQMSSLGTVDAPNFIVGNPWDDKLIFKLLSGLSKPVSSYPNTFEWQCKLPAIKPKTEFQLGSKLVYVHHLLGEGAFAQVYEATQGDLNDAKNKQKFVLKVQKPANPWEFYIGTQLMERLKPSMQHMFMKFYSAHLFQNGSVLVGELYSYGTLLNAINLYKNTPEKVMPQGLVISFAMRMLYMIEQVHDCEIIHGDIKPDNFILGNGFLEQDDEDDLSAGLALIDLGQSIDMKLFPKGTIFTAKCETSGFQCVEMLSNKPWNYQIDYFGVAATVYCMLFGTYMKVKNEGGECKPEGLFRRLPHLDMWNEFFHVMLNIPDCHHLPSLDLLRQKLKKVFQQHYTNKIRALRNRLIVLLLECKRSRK
Text: Bub1-inhibitory activity of compounds of the present invention was quantified employing the Bub1 TR-FRET assay as described in the following paragraphs.
N-terminally His6-tagged recombinant catalytic domain of human Bub1 (amino acids 704-1085), expressed in insect cells (Hi5) and purified by Ni-NTA affinity chromatography and subsequent size exclusion chromatography, was used as enzyme. As substrate for the kinase reaction the biotinylated peptide biotin-Ahx-VLLPKKSFAEPG (C-terminus in amid form) was used which can be purchased e.g. form the company Biosyntan (Berlin, Germany).
For the assay 50 nl of a 100 fold concentrated solution of the test compound in DMSO was pipetted into a black low volume 384 well microtiter plate (Greiner Bio-One, Frickenhausen, Germany), 2 μl of a solution of Bub1 in aqueous assay buffer [50 mM Tris/HCl pH 7.5, 10 mM magnesium chloride (MgCl2), 200 mM potassium chloride (KCl), 1.0 mM dithiothreitol (DTT), 0.1 mM sodium ortho-vanadate, 1% (v/v) glycerol, 0.01% (w/v) bovine serum albumine (BSA), 0.005% (v/v) Trition X-100 (Sigma), 1× Complete EDTA-free protease inhibitor mixture (Roche)] were added and the mixture was incubated for 15 min at 22° C. to allow pre-binding of the test compounds to the enzyme before the start of the kinase reaction. Then the kinase reaction was started by the addition of 3 μl of a solution of adenosine-tri-phosphate (ATP, 16.7 μM=>final conc. in the 5 μl assay volume is 10 μM) and substrate (1.67 μM=>final conc. in the 5 μl assay volume is 1 μM) in assay buffer and the resulting mixture was incubated for a reaction time of 60 min at 22° C. The concentration of Bub1 was adjusted depending of the activity of the enzyme lot and was chosen appropriate to have the assay in the linear range, typical concentrations were in the range of 200 ng/ml. The reaction was stopped by the addition of 5 μl of a solution of TR-FRET detection reagents (0.2 μM streptavidine-XL665 [Cisbio Bioassays, Codolet, France] and 1 nM anti-phosho-Serine antibody [Merck Millipore, cat. #35-001] and 0.4 nM LANCE EU-W1024 labeled anti-mouse IgG antibody [Perkin-Elmer, product no. AD0077, as an alternative a Terbium-cryptate-labeled anti-mouse IgG antibody from Cisbio Bioassays can be used]) in an aqueous EDTA-solution (50 mM EDTA, 0.2% (w/v) bovine serum albumin in 100 mM HEPES pH 7.5).
The resulting mixture was incubated 1 h at 22° C. to allow the formation of complex between the phosphorylated biotinylated peptide and the detection reagents. Subsequently the amount of phosphorylated substrate was evaluated by measurement of the resonance energy transfer from the Eu-chelate to the streptavidine-XL. Therefore, the fluorescence emissions at 620 nm and 665 nm after excitation at 350 nm was measured in a TR-FRET reader, e.g. a Rubystar or Pherastar (both from BMG Labtechnologies, Offenburg, Germany) or a Viewlux (Perkin-Elmer). The ratio of the emissions at 665 nm and at […] was taken as the measure for the amount of phosphorylated substrate. The data were normalised (enzyme reaction without inhibitor=0% inhibition, all other assay components but no enzyme=100% inhibition).

Chain of human kinase Mps-1 (P33981 whole entry): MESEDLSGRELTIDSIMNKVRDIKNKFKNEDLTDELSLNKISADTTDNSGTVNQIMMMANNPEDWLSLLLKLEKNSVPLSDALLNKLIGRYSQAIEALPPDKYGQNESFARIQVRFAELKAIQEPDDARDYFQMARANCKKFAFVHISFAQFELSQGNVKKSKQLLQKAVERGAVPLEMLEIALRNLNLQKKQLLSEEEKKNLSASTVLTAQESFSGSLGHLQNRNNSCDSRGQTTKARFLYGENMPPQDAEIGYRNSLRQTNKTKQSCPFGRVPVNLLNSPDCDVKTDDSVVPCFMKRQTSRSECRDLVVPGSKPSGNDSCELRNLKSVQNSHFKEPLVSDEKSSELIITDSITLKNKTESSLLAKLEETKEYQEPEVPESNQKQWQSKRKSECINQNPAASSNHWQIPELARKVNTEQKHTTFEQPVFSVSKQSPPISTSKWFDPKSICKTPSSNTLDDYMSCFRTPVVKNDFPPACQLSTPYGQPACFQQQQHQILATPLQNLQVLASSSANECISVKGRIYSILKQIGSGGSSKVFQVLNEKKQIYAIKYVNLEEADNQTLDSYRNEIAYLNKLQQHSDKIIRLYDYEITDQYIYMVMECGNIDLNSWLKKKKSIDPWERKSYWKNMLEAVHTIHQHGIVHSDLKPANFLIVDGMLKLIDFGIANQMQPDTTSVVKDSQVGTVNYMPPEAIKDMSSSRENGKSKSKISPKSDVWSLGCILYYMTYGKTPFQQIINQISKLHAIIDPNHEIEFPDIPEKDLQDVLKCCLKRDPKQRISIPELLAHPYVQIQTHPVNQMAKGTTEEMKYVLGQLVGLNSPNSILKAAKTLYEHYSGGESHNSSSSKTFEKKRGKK

Structure (SMILES) | IC50 (human kinase Mps-1) [µM] | IC50 (human Bub1) [µM]
CCc1ccccc1NC(=O)c1c(C)nsc1Nc1ccc(C#N)cn1 [Example 7, 5-[(5-Cyanopyridin-2-yl)amino]-N-(2-ethylphenyl)-3-methyl-1,2-thiazole-4-carboxamide] | > 20 | > 20
COc1ccc(NC(=O)c2c(C)nsc2Nc2cnc3cc(C(F)(F)F)ccc3n2)cn1 [Example 45, N-(6-Methoxypyridin-3-yl)-3-methyl-5-{[6-(trifluoromethyl)quinoxalin-2-yl]amino}-1,2-thiazole-4-carboxamide] | > 20 | > 20
CCc1ccccc1NC(=O)c1c(C)nsc1Nc1ncnc2ccccc12 [Example 10, N-(2-Ethylphenyl)-3-methyl-5-(quinazolin-4-ylamino)-1,2-thiazole-4-carboxamide] | > 20 | > 20
CCc1ccccc1NC(=O)c1c(C)nsc1Nc1nc2ccccc2s1 [Example 14, 5-(1,3-Benzothiazol-2-ylamino)-N-(2-ethylphenyl)-3-methyl-1,2-thiazole-4-carboxamide] | > 20 | 8.59
CCc1ccccc1NC(=O)c1c(C)nsc1Nc1nc(C)nc2ccccc12 [Example 35, N-(2-Ethylphenyl)-3-methyl-5-[(2-methylquinazolin-4-yl)amino]-1,2-thiazole-4-carboxamide] | > 20 | > 20
CCc1ccccc1NC(=O)c1c(C)nsc1Nc1cc(-n2ccnc2)ncn1 [Example 9, N-(2-Ethylphenyl)-5-{[6-(1H-imidazol-1-yl)pyrimidin-4-yl]amino}-3-methyl-1,2-thiazole-4-carboxamide] | > 20 | > 20
CCc1ccccc1NC(=O)c1c(C)nsc1Nc1nc2ccccc2nc1C [Example 21, N-(2-Ethylphenyl)-3-methyl-5-[(3-methylquinoxalin-2-yl)amino]-1,2-thiazole-4-carboxamide] | > 20 | > 20
CCc1ccccc1NC(=O)c1c(C)nsc1Nc1nccc(OC)n1 [Example 16, N-(2-Ethylphenyl)-5-[(4-methoxypyrimidin-2-yl)amino]-3-methyl-1,2-thiazole-4-carboxamide] | > 20 | > 20
CCc1ccccc1NC(=O)c1c(C)nsc1Nc1cc(NC)ncn1 [Example 15, N-(2-Ethylphenyl)-3-methyl-5-{[6-(methylamino)pyrimidin-4-yl]amino}-1,2-thiazole-4-carboxamide] | > 20 | > 20
COc1ccc(NC(=O)c2c(C)nsc2Nc2nccnc2C#N)cn1 [Example 24, 5-[(3-Cyanopyrazin-2-yl)amino]-N-(6-methoxypyridin-3-yl)-3-methyl-1,2-thiazole-4-carboxamide] | > 20 | 3.1
CCOC(=O)c1sc(Nc2snc(C)c2C(=O)Nc2ccc(OC)nc2)nc1C [Example 30, Ethyl 2-({4-[(6-methoxypyridin-3-yl)carbamoyl]-3-methyl-1,2-thiazol-5-yl}amino)-4-methyl-1,3-thiazole-5-carboxylate] | > 20 | > 20

Results, then the compound that gave them:

IC50 (human kinase Mps-1) [µM] | IC50 (human Bub1) [µM] | Structure (SMILES)
> 20 | > 20 | Cc1nsc(Nc2cnc3ccccc3n2)c1C(=O)Nc1ccc(OC(C)C)nc1 [Example 122, N-(6-Isopropoxypyridin-3-yl)-3-methyl-5-(quinoxalin-2-ylamino)-1,2-thiazole-4-carboxamide]
> 20 | > 20 | Cc1nsc(Nc2cnc3ccccc3n2)c1C(=O)Nc1ccc(Oc2ccc(F)cc2F)nc1 [Example 113, N-[6-(2,4-Difluorophenoxy)pyridin-3-yl]-3-methyl-5-(quinoxalin-2-ylamino)-1,2-thiazole-4-carboxamide]
> 20 | > 20 | COC(=O)c1cnc(Nc2snc(C)c2C(=O)Nc2ccc(F)c(F)c2)o1 [Example 97, Methyl 2-({4-[(3,4-difluoro-phenyl)carbamoyl]-3-methyl-1,2-thiazol-5-yl}amino)-1,3-oxazole-5-carboxylate]
> 20 | > 20 | COc1ccc(NC(=O)c2c(C)nsc2Nc2nc3c(C(F)(F)F)cccc3s2)cc1F [Example 47, N-(3-Fluoro-4-methoxyphenyl)-3-methyl-5-{[4-(trifluoromethyl)-1,3-benzothiazol-2-yl]amino}-1,2-thiazole-4-carboxamide]
> 20 | > 20 | CCOC(=O)c1coc(Nc2snc(C)c2C(=O)Nc2ccc(OC)nc2)n1 [Example 100, Ethyl 2-({4-[(6-methoxypyridin-3-yl)carbamoyl]-3 methyl-1,2-thiazol-5-yl}amino)-1,3-oxazole-4-carboxylate]
> 20 | > 20 | COc1ncc(NC(=O)c2c(C)nsc2Nc2cnc3ccccc3n2)cc1C [Example 121, N-(6-Methoxy-5-methylpyridin-3-yl)-3-methyl-5-(quinoxalin-2-ylamino)-1,2-thiazole-4-carboxamide]
18 | > 20 | Cc1nsc(Nc2ccn3nccc3n2)c1C(=O)Nc1ccc(F)c(F)c1 [Example 57, N-(3,4-Difluorophenyl)-3-methyl-5-(pyrazolo[1,5-a]pyrimidin-5-ylamino)-1,2-thiazole-4-carboxamide]
> 20 | > 20 | COc1ccc(Oc2ccc(NC(=O)c3c(C)nsc3Nc3cc(C#N)ccn3)cn2)cc1 [Example 117, 5-[(4-Cyanopyridin-2-yl)amino]-N-[6-(4-methoxyphenoxy)pyridin-3-yl]-3-methyl-1,2-thiazole-4-carboxamide]
